Reference: article PMC10515486, “Peptide Bispecifics Inhibiting HIV-1 Infection by an Orthogonal Chemical and Supramolecular Strategy” (Bioconjugate Chemistry, 2023)
Non-standard residues stand in square brackets, D forms with d. Residues, ends and D or L forms follow the SMILES beside them. No end group written: not given here. *: point of attachment. X1 = O=C(CCCC[C@@H]1SC[C@@H]2NC(=O)N[C@@H]21)NCCOCCOCCOCCOCCOCCOCCOCCOCCOCCOCCOCCNC(=O)CCN1C(=O)CC(*)C1=O

Key:
HIV-1 NL4-3 = assay: TZM-bl infection with HIV-1 NL4-3 preincubated with carrier compounds; assay type: cell-based; settings: virus preincubated with increasing amounts of carrier; β-galactosidase 3 days p.i.; three biological replicates
Description: To determine the infectivity of virions produced in infected human |PBMCs, TZM-bl cells were seeded in 96 -well plates at a density of 10,000 cells/well and infected after overnight incubation with the supernatants collected from the PBMC cultures. Three days p.i., viral infectivity was determined using a galactosidase screen kit from Tropix as recommended by the manufacturer. β-Galactosidase activities were quantified as relative light units (RLU) per second with an Orion Microplate luminometer (Berthold) . […]
infected with HIV-1 NL4-3 that was preincubated with increasing amounts of the carrier compounds Avidin, Neutravidin or Streptavidin. Three days post infection , a β-galactosidase assay was performed.
Each dot represents three biological replicates ± SEM.
(1 picture or pasted object on this page, not shown here)

R5-tropic HIV-1 = assay: Replication kinetics in human PBMCs, R5-tropic HIV-1; assay type: cell-based; settings: activated PBMCs from three human donors; 1 μM compound, AMD3100 1 μM, MVC 50 nM; supernatants titrated on TZM-bl cells
Description: Figure 5 Antiviral activity of single- and multivalent VIR-102C9/EPI-X4 JM#173-C conjugates. Concentrations indicate the molarity of the tested biotin-conjugated peptides or of the SAv conjugates with four copies of mono- or bispecific peptides respectively. (A) TZM-bl cells were pretreated with the indicated amounts of the single or multivalent compound and infected with X4- or R5-tropic HIV-1. Three days post-infection, a β-galactosidase assay was performed. IC50 values are given in the SI (Table S2). (B) Human PBMCs were isolated, stimulated, and pretreated with 1 μM of the indicated single- or multivalent compound, Maraviroc (MVC/50 nM) or AMD3100 (1 μM). […] Infectious virus yield was determined by infection of TZM-bl reporter cells with PBMC culture supernatants obtained at the indicated day post-infection (dpi). […] They are assigned to (14) only because they sit in the plots with the purple curve, matched to the colour legend. / 14, IC50 (X4): small print, 0.026 could be 0.028 or 0.025 / 14, IC50 (R5): small print, 0.039 could be 0.038 or 0.089 / Substance label in the legend reads 'SAv-VIR-1029C-', but panel B prints 'SAv-VIR-102C9'. […]
Cell viability was determined by the Cell Titer-Glo 2.0 Cell Viability Assay according to the manufacturer’s instructions. […]
After 48 h, cell viability was assessed by measuring ATP levels in cells lysates with the commercially available Cell Titer-Glo kit. […]

X4-tropic HIV-1 = assay: Replication kinetics in human PBMCs, X4-tropic HIV-1; assay type: cell-based; settings: activated PBMCs from three human donors; 1 μM compound, AMD3100 1 μM, MVC 50 nM; supernatants titrated on TZM-bl cells
Description: (§1) (A) TZM-bl cells were pretreated with the indicated amounts of the single or multivalent compound and infected with X4- or R5-tropic HIV-1. Three days post-infection, a β-galactosidase assay was performed. […] (B) Human PBMCs were isolated, stimulated, and pretreated with 1 μM of the indicated single- or multivalent compound, Maraviroc (MVC/50 nM) or AMD3100 (1 μM). The cells were infected with X4- or R5-tropic HIV-1. Infectious virus yield was determined by infection of TZM-bl reporter cells with PBMC culture supernatants obtained at the indicated day post-infection (dpi). […]

R5-tropic HIV-1 NL4-3 = test system: R5-tropic HIV-1 NL4-3
From the text: (§2) TZM-bl reporter cells were pretreated with increasing concentrations of the mono- and multivalent compounds and subsequently infected with the well-characterized X4-tropic HIV-1 NL4-3 molecular clone or an R5-tropic derivative thereof that differs in the V3 region of the viral envelope glycoprotein from the parental virus (Figure 5A).[39]
as §1
(§3) in supplemented RPMI-1640 and incubated with Human T-Activator CD3/CD28 […]
(§4) Virus stocks were generated by transient transfection of HEK293T cells using the calcium-phosphate precipitation method. One day before transfection, 0.8 x 10^6 HEK293T cells were seeded in 6 -well plates (Greiner Bio -one, Frickenhausen, Germany). At a confluence of 60-80% cells were used for transfection. For the […]

X4-tropic HIV-1 NL4-3 = settings: read-out: IC50 X4; TZM-bl cells pretreated, infected with X4-tropic HIV-1 NL4-3; β-galactosidase 3 days p.i.; molarity of biotin-conjugated peptide or of SAv construct (per construct); nonlinear regression
From the text: as §2, §1, §3, §4

wild-type HIV-1 NL4-3 = settings: Figure 2B
From the text: (B) Inhibition of wild-type HIV-1 NL4-3 by single-cysteine VIRIP derivatives.

In the case of “Streptavidin: tetrameric biotin-binding protein, carrier”, the “effect on HIV-1 infection efficiency” value (HIV-1 NL4-3) is reported as “do not alter”.

For Maraviroc, the “replication of R5-tropic HIV-1 in PBMCs (infectious virus yield)” value (R5-tropic HIV-1) was “prevented”.

For c1cc(CN2CCCNCCNCCCNCC2)ccc1CN1CCCNCCNCCCNCC1 [AMD3100], the “replication of X4-tropic HIV-1 in PBMCs (infectious virus yield)” value (X4-tropic HIV-1) was “blocked”.

CC[C@H](C)[C@H](NC(=O)[C@H](CO)NC(=O)[C@H](CCSC)NC(=O)[C@@H]1CCCN1C(=O)[C@@H](NC(=O)[C@H](C)NC(=O)[C@H](CCC(=O)O)NC(=O)[C@@H](N)CC(C)C)[C@@H](C)CC)C(=O)N[C@@H](CSC1CC(=O)N(CCC(=O)NCCOCCOCCOCCOCCOCCOCCOCCOCCOCCOCCOCCNC(=O)CCCC[C@@H]2SC[C@@H]3NC(=O)N[C@@H]32)C1=O)C(=O)N1CCC[C@H]1C(=O)N[C@@H](CCC(=O)O)C(=O)N[C@H](C(=O)N[C@@H](Cc1ccccc1)C(=O)N[C@@H](Cc1ccccc1)C(=O)N[C@@H](CC(N)=O)C(=O)N[C@@H](CCCCN)C(=O)N1CCC[C@H]1C(=O)N[C@@H](Cc1ccccc1)C(=O)N[C@H](C(=O)N[C@@H](Cc1ccccc1)C(=O)O)C(C)C)C(C)C (stereo partly shown) [compound 5] (H-LEAIPMSIC(X1)PEVFFNKPFVF-OH; N-terminus and C-terminus assumed) was tested, and the IC50 (R5-tropic HIV-1 NL4-3; read-out: IC50 R5, TZM-bl cells pretreated, infected with R5-tropic HIV-1 NL4-3 derivative, β-galactosidase 3 days p.i., molarity of biotin-conjugated peptide or of SAv construct (per construct)) was 1200 nM and the IC50 (X4-tropic HIV-1 NL4-3) was 1130 nM.

Work on LEAIPMSICPEVFFNKPFVF [VIR-102C9] yielded an IC50 (wild-type HIV-1 NL4-3) of 200 nM.

With CC[C@@H](C)[C@@H](N)C(=O)N[C@@H](CC(C)C)C(=O)N[C@@H](CCCNC(=N)N)C(=O)N[C@@H](Cc1c[nH]c2ccccc12)C(=O)N[C@@H](CO)C(=O)N[C@@H](CCCNC(=N)N)C(=O)N[C@@H](CCCCN)C(=O)N[C@@H](CSC1CC(=O)N(CCC(=O)NCCOCCOCCOCCOCCOCCOCCOCCOCCOCCOCCOCCNC(=O)CCCC[C@@H]2SC[C@@H]3NC(=O)N[C@@H]32)C1=O)C(N)=O (stereo partly shown) [compound 6] (H-[dI]LRWSRKC(X1)-NH2; N-terminus and C-terminus assumed) the “activity against the R5-tropic derivative (in words)” value (R5-tropic HIV-1 NL4-3; TZM-bl cells) was “inactive”.
